Laboratory results reported in patent publication US9464306B2, “Method for producing L-amino acid” (KANEKA CORPORATION, priority 2008, dated 2016).
Like-named read-outs stand apart in the source and are kept apart here.

Tests used:
[1] = Dissolved concentration of the L-amino acid in the reaction mixture after completion of the reaction (HPLC); settings: substrate solution pH 8, 45° C.
Description: (§1) Here, the “dissolved concentration” refers to percentage (%) by weight of an amino acid dissolvable in the reaction mixture after completion of the reaction, and can be measured by the following method. That is, the L-amino acid is added to the reaction mixture after completion of the reaction until the L-amino acid is no longer dissolved. After that, the mixture is centrifuged, and the resulting supernatant is filtered. The amino acid present in the filtrate is quantitatively analyzed by high performance liquid chromatography, and the percentage (%) by weight of the amino acid is calculated.

[2] = pH 8
Description: as §1

[3] = L-amino acid dissolvable in reaction mixture after reaction of the N-succinyl-DL-amino acid with liquid cultures of E. coli HB101 (pNHK) and E. coli HB101 (pNIG)

Row | dissolved concentration [2] [% by weight] | Compound | dissolved concentration [1, 3] [% by weight] | dissolved concentration ([1]; L-amino acid dissolvable in reaction mixture after reaction with liquid culture of E. coli HB101 (pNIGHK)) [% by weight]
1 | – | N[C@@H](Cc1cccc(F)c1)C(=O)O [L-3-fluorophenylalanine] | ≤ 0.5 | –
2 | – | N[C@@H](Cc1ccc(Br)cc1)C(=O)O [L-4-bromophenylalanine] | ≤ 0.5 | –
3 | – | C=CCCCCC[C@H](N)C(=O)O [L-6-heptenylglycine] | ≤ 0.5 | ≤ 0.5
4 | – | N[C@@H](Cc1ccccc1)C(=O)O [L-phenylalanine, reference compound] | 4 | –
5 | ≤ 0.5 | L-2-indanylglycine | – | –
